Laboratory results: patent publication US6867305B2, “Synthesis of epothilones, intermediates thereto and analogues thereof” (Sloan-Kettering Institute for Cancer Research, priority 1996, dated 2005)
Where two headings read alike, the source gives them in different places.

What was measured:
DC-3F/ADX = assay: Tumor cell growth inhibition in vitro; format: cell-based, hamster; conditions: for IC50: DC-3F/ADX; for cross-resistance (fold of resistance vs parent cell line): DC-3F/ADX vs DC-3F
Procedure: (§1) The fresh medium containing each drug was replenished every 7-14 days. […] In each case ,the drug-exposed cells were resuspended in fresh media for a minimum of 4 days before the experiments for the cell-growth inhibition was carried out.
(§2) The cells were cultured at an initial density of 2-5×10^4 cells per ml. They were maintained in a 5% CO2-humidified atmosphere at 37° C. in RPMI mediun 1640 (GIBCO/BRL) containing penicillin (100 units/ml), streptomycin (100 μg/ml) (GIBCO/BRL), and 5% heat-inactivated fetal bovine serum. For solid tumor cells growing in a monolayer (such as MCF-7/Adr), cytotoxicitiy of the drug was determined in 96-well microtiter plates by using the sulforhodamine B method as described by Skehan et al (23) for measuring the cellular protein content. For cells that were grown in suspension (such as CCRF-CEM and its sublines), cytotoxicitiy was measured by using the 2,-3-bis(2-methoxy-4-nitro-5-sulfophenyl)-5carboxanilide)-2H terazodium hydroxide (XTT)-microculture tetrazonium method (24) in duplicate in 96-well microtiter plates. For both methods, the absorbance of each well was measured with a microplate reader (EL-340, Bio-Tek, Burlington, Vt.). Each run entailed six or seven concentrations of the tested drugs. Dose-effect relationship data were analyzed with the median-effect plot (25) by using a previously described computer program (26).

[1] = tested on: A549 lung carcinoma xenograft; assay: Human tumor xenograft in nude mice; format: in vivo
Procedure: (§3) Depending on the tumor type, treatment started on day 10 to day 21 when subcutaneous tumor size reached 35-200 mm^3, except otherwise indicated. Tumor size and body-weight were recorded every other day (Q2D) and, for humane reasons, the animals were sacrificed when tumor size reached ≧10% of body-weight. Each group, including untreated control, consisted of 3-5 animals unless otherwise indicated.
(§4) Athymic nude mice bearing the nu/nu gene were used for all human tumor xenografts. Outbred, Swiss-background mice were obtained from Charles River Laboratories. Male mice 8 weeks or older weighing 22 g and up were used for most experiments. The drug was administered via the tail vein for 6 hr.-i.v. infusion. Each individual mouse was confined in a perforated Falcon polypropylene tube restrainer for drug administration. Tumor volume was assessed by measuring length×width×height (or width) using a caliper. The programmable Harvard PHD2000 syringe pump (Harvard Apparatus) with multi-track was used for i.v. infusion. […] All animal studies were conducted in accordance with the guidelines of the National Institutes of Health “Guide for the Care and Use of Animals” and the protocol approved by the Memorial Sloan-Kettering Cancer Center's Institutional Animal Care and Use Committee. In keeping with the policy of this committee for the humane treatment of tumor-bearing animals, mice were euthanized when tumors reached ≧10% of their total body weight.
(§5) Human tumor cells (5×10^6) or tumor tissue (30-50 mg) were implanted s.c. flank in nu/nu mice (Charles River Laboratories, Wilmington, Mass.). When tumor grew to a specified size, treatment was started by every-other day×5 with 6 hr i.v.-infusion, unless otherwise indicated. Tumor volume was measured with calipers in three dimensions (length×width×height or width). Body-weight changes and lethality were monitored every other day.

[2] = tested on: CCRF-CEM/Taxol leukemia xenograft; assay: Human tumor xenograft in nude mice; format: in vivo; conditions: for Lowest Average Tumor Size (T/C) / Tumor Disappearance: CCRF/Taxol, dEpoB 30 mg/kg, Taxol 20 mg/kg, Q2Dx5, 6-hr i.v. infusion
Procedure: as §3, §4, §5

[3] = tested on: CCRF-CEM/VBL leukemia xenograft; assay: Human tumor xenograft in nude mice; format: in vivo; conditions: for Lowest Average Tumor Size (T/C) / Tumor Disappearance: CCRF/VBL, dEpoB 30 mg/kg, Taxol 20 mg/kg, Q2Dx5, 6-hr i.v. infusion
Procedure: as §3, §4, §5

[4] = tested on: HL-60 promyelocytic leukemia xenograft; assay: Human tumor xenograft in nude mice; format: in vivo
Procedure: as §3, §4, §5

[5] = tested on: HT-29 colon adenocarcinoma xenograft; assay: Human tumor xenograft in nude mice; format: in vivo
Procedure: as §3, §4, §5

[6] = tested on: PC-3 prostate adenocarcinoma xenograft; assay: Human tumor xenograft in nude mice; format: in vivo
Procedure: as §3, §4, §5

[7] = tested on: UL3-C ovary adenocarcinoma xenograft; assay: Human tumor xenograft in nude mice; format: in vivo
Procedure: as §3, §4, §5

[8] = tested on: DC-3F hamster lung fibroblasts; assay: Tumor cell growth inhibition in vitro; format: cell-based
Procedure: as §1, §2

[9] = Stability in plasma in vitro (HPLC); format: in vitro ADME, human
Procedure: (FIG. 44). […] (FIG. 44).
Human blood plasma or nude mice plasma (300 μl) containing dEpoB (0.05-20 μg/ml) was added 30 μl of methanol and mixed for 2 min and then added 300 μl of methanol. The centrifuge supernatant was used for high performance liquid chromatography (HPLC). Nova-pak C18 column (15 cm) was used, with 50% acetonitrile/water with 0.8% triethylamine and 0.2% phosphoric acid as mobile phase. UV absorbance at 250 nm was measured.
Stability of dEpoF in animal plasmas. A HPLC method is set up using a NovaPak C 18, 3.9×300 mm column with a mobile phase of 50% acetonitrile in 50 mM potassium dihydrogen phosphate with 0.01% triethylamine at a flow rate of 0.8 ml/min. dEpoF is monitored at a wavelength of 260 nm and has a retention time of about 10 min. The plasma stability is performed with mouse plasma and dog plasma purchased from Pel-Freeze and human plasma from the blood center in MSKCC. A small amount of dEpoF was dissolved in 50% methanol/water at a concentration of 500 μg/mL. An aliquot of 20 μL is then spiked to 2 mL of plasma to a final plasma concentration of 5 μg/mL. The plasma samples were kept at 37 degree. […] Twenty μL of the supernatant was analyzed by HPLC without further modification. dEpoF disappears rapidly with half life about one hour in the commercial frozen mouse plasma alone, but stable in dog and human plasma.

[10] = A549, dEpoB 40 mg/kg, Taxol 15 mg/kg, Q2Dx3, 6-hr i.v. infusion
[11] = HL-60, dEpoB 30 mg/kg, Taxol 20 mg/kg, Q2Dx5, 6-hr i.v. infusion
[12] = HT-29, dEpoB 30 mg/kg, Taxol 15 mg/kg, Q2Dx6, 6-hr i.v. infusion
[13] = PC-3, dEpoB 40 mg/kg, Taxol 15 mg/kg, Q2Dx3, 6-hr i.v. infusion
[14] = dEpoB 30 mg/kg, Taxol 20 mg/kg, Q2Dx5, 6-hr i.v. infusion

CC(=O)O[C@H]1C(=O)[C@@]2(C)[C@H]([C@H](OC(=O)c3ccccc3)[C@]3(O)C[C@H](OC(=O)[C@H](O)[C@@H](NC(=O)c4ccccc4)c4ccccc4)C(C)=C1C3(C)C)[C@]1(OC(C)=O)CO[C@@H]1C[C@@H]2O [Taxol, paclitaxel, reference compound]
IC50 (DC-3F/ADX): 583 nM | IC50 (DC-3F/ADX; listed as Paclitaxel): 20200 nM | Tumor Disappearance [1, 10]: 2/4 | Lowest Average Tumor Size (T/C) [2]: 0.32 | Tumor Disappearance [2]: 0/2 | Lowest Average Tumor Size (T/C) [3]: 0.62 | Tumor Disappearance [3]: 0/2 | Tumor Disappearance [4, 11]: 4/4 | Tumor Disappearance [5, 12]: 0/4 | Tumor Disappearance [6, 13]: 0/4 | Tumor Disappearance [7, 14]: 0/3 | IC50 (UL-3-B/Taxol; UL-3-B/Taxol): 13.4 nM

C/C(=C\c1csc(C)n1)C1C[C@@H]2O[C@]2(C)CCC[C@H](C)[C@H](O)[C@@H](C)C(=O)C(C)(C)C(O)CC(=O)N1 (stereo partly drawn) [aza-EpoB, aza-epothilone B]
IC50 ([8]; Mesocricetus auratus, DC3F, read-out: IC50): 8.7 nM | cross-resistance (fold of resistance vs parent cell line) (DC-3F/ADX): 33.1 x | cross-resistance (fold of resistance vs parent cell line) (DC-3F/ADX; listed as 15-aza-EpoB): 274 x | IC50 (DC-3F/ADX; listed as 15-aza-EpoB, read-out: IC50): 2380 nM | IC50 (DC-3F/ADX; read-out: IC50): 288 nM | cross-resistance (fold of resistance vs parent cell line) (UL-3-B/Taxol): 0.015[12.5] x

C/C1=C/C[C@@H](/C(C)=C/c2csc(CO)n2)OC(=O)C[C@H](O)C(C)(C)C(=O)[C@H](C)[C@@H](O)[C@@H](C)CCC1 [dEpoF, 12,13-Desoxyepothilone F]
stability in human plasma ([9]; 5 μg/mL, 37 degree): stable

C/C1=C/C[C@@H](/C(C)=C/c2csc(C)n2)OC(=O)C[C@H](O)C(C)(C)C(=O)[C@H](C)[C@@H](O)[C@@H](C)CCC1 [dEpoB, 12,13-desoxyepothilone B]
IC50 [8]: 2.5 nM | IC50 ([8]; Mesocricetus auratus, DC3F): 1.9 nM | Therapeutic Effect Rank Order ([1]; A549, i.v. infusion): Taxol, dEpoB, VBL>VP-16 | Lowest Average Tumor Size (T/C) [1, 10]: 0.01 | Tumor Disappearance [1, 10]: 1/3 | Therapeutic Effect Rank Order ([2]; CCRF-CEM/Taxol, i.v. infusion): dEpoB>>>Taxol | Lowest Average Tumor Size (T/C) [2]: 0 | Tumor Disappearance [2]: 3/3 | Therapeutic Effect Rank Order ([3]; CCRF-CEM/VBL, i.v. infusion): dEpoB>>>Taxol | Lowest Average Tumor Size (T/C) [3]: 0 | Tumor Disappearance [3]: 2/2 | Therapeutic Effect Rank Order ([4]; HL-60, i.v. infusion): Taxol≧ dEpoB | Lowest Average Tumor Size (T/C) [4, 11]: 0.01 | Tumor Disappearance [4, 11]: 2/3 | Therapeutic Effect Rank Order ([5]; HT-29, i.v. infusion): Taxol>dEpoB | Lowest Average Tumor Size (T/C) [5, 12]: 0.02 | Tumor Disappearance [5, 12]: 0/3 | Therapeutic Effect Rank Order ([6]; PC-3, i.v. infusion): Taxol, VBL>dEpoB>>VP-16 | Therapeutic Effect Rank Order ([6]; PC-3, i.v. or i/p.): Taxol>dEpoB>>Adriamycin | Therapeutic Effects dEpoB vs Taxol ([6]; PC-3, dEpoB 40 mg/kg, Taxol 15 mg/kg, Q2Dx3): << | Lowest Average Tumor Size (T/C) [6, 13]: 0.12 | Tumor Disappearance [6, 13]: 0/3 | Lowest Average Tumor Size (T/C) [7, 14]: 0.03 | Tumor Disappearance [7, 14]: 0/3 | Therapeutic Effect Rank Order ([7]; i.v. infusion): dEpoB≧ Taxol | period of stability in human plasma in vitro ([9]; human plasma, HPLC): over 3 hrs
